Source: publication PMC8080589, “Modulation of αVβ6 integrin in osteoarthritis-related synovitis and the interaction with VTN(381–397 a.a.) competing for TGF-β1 activation” (Experimental & Molecular Medicine, 2021)

Tests used:
[1] = test system: β6 integrin subunit expression, human fibroblast-like synoviocytes (FLSs); assay: β6 subunit expression in FLSs by western blot after stimulation; assay type: cell-based; conditions: TGF-β1 10 ng/mL, 3 or 7 days, n = 12, OA FLSs, western blot normalized to GAPDH, paired Wilcoxon, p-value ≤ 0.01
Protocol: Synovial membranes were obtained from 22 OA patients (14 females, 8 males; mean age 69.8 ± 9.6 years, BMI 30.9 ± 6.8) during knee replacement, and primary synovial fibroblasts were isolated as explained previously. The research ethics committee of CHU de Liege (Belgium) approved the study, and the patient gave informed consent to allow research procedures on samples. Human fibroblast-like synoviocytes (FLSs) were then cultured in DMEM supplemented with 10% FBS, 1% Pen/Strep, and 1% L-glutamine (all from Lonza; Basel, Switzerland) at 37 °C in an atmosphere of 5% CO2. In a plate, 5 × 10^4 FLSs were stimulated with different compounds to analyze the modulation of αVβ6: (i) TGF-β1, TNF-α, IL-1β, or IL-6 were used for 3 or 7 days at a concentration of 10 ng/mL; (ii) among the danger-associated molecular patterns, high-mobility group box 1 (HMGB1) was tested at 10, 50, and 100 ng/mL for 3 days, while S100A9 and S100A12 were tested at 100 and 200 ng/mL for 3 days or 24 h; (iii) advanced glycation end product (AGE-BSA) was tested at 50, 100, and 200 μg/mL for 3 days or 24 h; (iv) prednisolone and dexamethasone were used at 1 μM for 3 or 7 days; and (v) menadione or H2O2 was used to induce oxidative stress at 25–50–100 μM (3 h) and 100–200–400 μM (2 h), respectively, without FBS in the medium.
The expression of αV and β6 subunits and α-SMA in FLSs was evaluated by western blot analysis. Cells were scraped from plates and lysed with lysis buffer (25 mM HEPES, 150 mM NaCl, 0.5% Triton, 10% glycerol, 1 mM dithiothreitol) containing phosphatase inhibitors (25 mM β-glycerophosphate, 1 mM Na3VO4, and 1 mM NaF) and complete protease inhibitor mixture (Roche Applied Science; Penzberg, Germany). Total proteins were separated by 10% SDS–PAGE gels (12% for α-SMA) and transferred onto PVDF membranes. The membranes were then incubated with anti-αV polyclonal antibody (1:250 dilution) (Cell Signaling Technology; Boston, MA, USA), anti-β6 polyclonal antibody (1:1000 dilution) (Abcam; Cambridge, UK) or anti-α-SMA monoclonal antibody (Agilent; Santa Clara, CA, USA; 1:1000 dilution). HRP-conjugated anti-rabbit antibody (1:1000 dilution) (Cell Signaling Technology) was used as the secondary antibody. Immunoblots were developed using the ECL chemiluminescent detection system. Rabbit anti-glyceraldehyde 3-phosphate dehydrogenase (GAPDH) (Merck) or rabbit anti-heat shock protein 90 (Hsp90; Santa Cruz) was used as loading controls at a dilution of 1:10,000 or 1:200, respectively. Values of optical intensity were normalized to GAPDH or Hsp90 levels. Data were analyzed by paired Wilcoxon test; a p-value < 0.05 was considered statistically significant. Statistical analysis was performed with GraphPad Prism 6 software (San Diego, CA, USA).
IL-1β 10 ng/mL 3 days IL-6 10 ng/mL 3 daysIL-6 Prednisolone 1µM 3 daysPrednisolone
0.0 control IL-6 0.0 control PRE
Dexamethasone 1µM 3 daysDexamethasone TNF-α 10 ng/mL 3 days AGE 50 µg/mL 24 h

α-SMA in human FLSs = assay: Expression of α-SMA in FLSs by western blot; assay type: cell-based; conditions: TGF-β1 10 ng/mL, 7 days, OA FLSs (n = 5), western blot normalized to Hsp90
Protocol: Finally, for analysis of the expression of α-SMA, FLSs (n = 5) were stimulated with VTN(381–397 a.a.) (10, 25, 50, 100 ng/mL) with or without TGF-β1 (10 ng/mL) for 7 days.
The expression of αV and β6 subunits and α-SMA in FLSs was evaluated by western blot analysis. Cells were scraped from plates and lysed with lysis buffer (25 mM HEPES, 150 mM NaCl, 0.5% Triton, 10% glycerol, 1 mM dithiothreitol) containing phosphatase inhibitors (25 mM β-glycerophosphate, 1 mM Na3VO4, and 1 mM NaF) and complete protease inhibitor mixture (Roche Applied Science; Penzberg, Germany). Total proteins were separated by 10% SDS–PAGE gels (12% for α-SMA) and transferred onto PVDF membranes. The membranes were then incubated with anti-αV polyclonal antibody (1:250 dilution) (Cell Signaling Technology; Boston, MA, USA), anti-β6 polyclonal antibody (1:1000 dilution) (Abcam; Cambridge, UK) or anti-α-SMA monoclonal antibody (Agilent; Santa Clara, CA, USA; 1:1000 dilution). […] Data were analyzed by paired Wilcoxon test; a p-value < 0.05 was considered statistically significant. […]
FLSs were stimulated with VTN(381–397 a.a.) with or without TGF-β1 to evaluate the effect on the expression of the fibrotic marker α-SMA (Fig. 5). […] The results in Fig. 5 are expressed as the ratio of the normalized optical density vs. the control and are shown as the mean (±SEM).

[2] = test system: latent TGF-β1 activation (αVβ6 on human FLSs; PAI-1 promoter-luciferase in TMLCs); assay: TGF-β luciferase bioassay, TMLC + FLS coculture, activation of latent TGF-β1; assay type: cell-based, human FLSs; mink lung epithelial reporter cells; conditions: peptide 50 ng/mL, 200 ng/mL latent TGF-β1, TMLC + FLS coculture, 16 h, n = 6 donors in triplicate, paired Wilcoxon
Protocol: Transformed mink lung epithelial cells (TMLCs), a generous gift from Prof. DB Rifkin (Department of Cell Biology, NYU School of Medicine, New York, NY), were used to test TGF-β1 functionality. TMLCs were cultured in DMEM supplemented with 10% FBS, 1% Pen/Strep, and 1 mg/mL G418 Sulfate (Biowest; Riverside, MO, USA). For coculture, TMLCs were plated in 96-well plates at a density of 10^4 cells per well, and fibroblasts were added at a density of 1.5 × 10^4 cells per well, with a final volume of 100 μL. Cells were allowed to attach at 37 °C and 5% CO2. After 6 h, the medium was removed and replaced by the different treatments diluted in medium with 0.1% BSA without FBS (final volume of 100 μL).
For function-blocking experiments, cells were incubated with anti-αVβ6 antibody (clone 10D5; Merck) or with the isotype control IgG2a kappa (clone eBM2a; Thermo Fisher Scientific) for 20 min at room temperature at a concentration of 50 μg/mL in medium containing 1 mM MgCl2/0.1% BSA before adding other compounds. […] Luciferase activity was assessed by plate-reading luminometers with an injector (Victor™ X3; PerkinElmer Waltham, MA, USA) adding 100 µl of luciferase assay reagent (Promega) per well. […]
The data are expressed as relative luciferase activity (RLA). RLA is the measured luciferase activity of the coculture divided by the activity of the related control alone under the same conditions. […]

Substance | effect on β6 subunit expression [1] | effect on α-SMA (α-SMA in human FLSs) | effect on latent TGF-β1 activation (luciferase signal) [2]
TGF-β1: profibrotic mediator | significantly increased β6 expression | upregulated the content of the fibrotic marker α-SMA | –
hepcidin: used as a control peptide | – | – | No significant variation was observed
